From patent US8822458B2, “Substituted oxazolidinones and their use in the field of blood coagulation” (Bayer Intellectual Property GmbH, priority 1999, dated 2014)
Blank lines part the entries; values can stand above or below the compound they belong to.

Assays:
[1] = system: thrombus formation in arteriovenous shunt; experiment: Arteriovenous shunt model (rat), antithrombotic activity; assay type: in vivo; conditions: po, read-out: ED50 [mg/kg] p.o.
Description: b) Determination of the Antithrombotic Activity (In Vivo) b.1) Arteriovenous Shunt Model (Rat) Fasting male rats (strain: HSD CPB:WU) having a weight of 200-250 g were anaesthetized using a Rompun/Ketavet solution (12 mg/kg/50 mg/kg). Thrombus formation was initiated in an arteriovenous shunt in accordance with the method described by Christopher N. Berry et al., Br. J. Pharmacol. (1994), 113, 1209-1214. To this end, the left jugular vein and the right carotid artery were exposed. The two vessels were connected by an extracorporeal shunt using a polyethylene tube (PE 60) of a length of 10 cm. […] The extracorporeal circulation was maintained for 15 minutes. The shunt was then removed and the nylon thread with the thrombus was weighed immediately. The weight of the nylon thread on its own had been determined before the experiment was started. Before the extracorporeal circulation was set up, the test substances were administered to the animals while awake either intravenously via the tail vein or orally using a pharyngeal tube.

human factor Xa (FXa) = human factor Xa (FXa) (Homo sapiens (Human), UniProt P00742); experiment: Determination of the factor Xa inhibition (chromogenic substrate); assay type: biochemical
Description: Factor Xa cleaves p-nitroaniline from the chromogenic substrate. The determinations were carried out in microtitre plates as follows.
The test substances, in various concentrations, were dissolved in DMSO and incubated at 25° C. with human FXa (0.5 nmol/l dissolved in 50 mmol/l of tris buffer [C,C,C-tris(hydroxymethyl)-aminomethane], 150 mmol/l of NaCl, 0.1% BSA (bovine serum albumin), pH=8.3) for 10 minutes. Pure DMSO was used as control. The chromogenic substrate (150 μmol 11 of Pefachrome® FXa from Pentapharm) was then added.

Sequence of human factor Xa (FXa) (P00742 235-488): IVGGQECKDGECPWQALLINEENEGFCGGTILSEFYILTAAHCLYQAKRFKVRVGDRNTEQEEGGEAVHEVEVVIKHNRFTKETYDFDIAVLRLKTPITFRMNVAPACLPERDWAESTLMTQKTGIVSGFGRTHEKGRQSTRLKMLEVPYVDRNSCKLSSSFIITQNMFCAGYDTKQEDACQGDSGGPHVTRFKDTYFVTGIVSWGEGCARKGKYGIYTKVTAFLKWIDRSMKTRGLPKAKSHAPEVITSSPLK
Sequence of human factor Xa (FXa) (P00742 41-179 partner): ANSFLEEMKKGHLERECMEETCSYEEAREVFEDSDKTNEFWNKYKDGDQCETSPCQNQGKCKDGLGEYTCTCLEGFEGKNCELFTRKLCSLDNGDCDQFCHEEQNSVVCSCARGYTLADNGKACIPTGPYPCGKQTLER

Structure (SMILES): O=C(NC[C@H]1CN(c2ccc(N3CCOCC3=O)cc2)C(=O)O1)c1ccc(Cl)s1 [Example 44, 5-Chloro-N-({(5S)-2-oxo-3-[4-(3-oxo-4-morpholinyl)phenyl]-1,3-oxazolidin-5-yl}methyl)-2-thiophenecarboxamide]
ED50 [1]: 3 mg/kg

IC50 (human factor Xa (FXa); human FXa 0.5 nmol/l, Pefachrome FXa substrate, 25° C., value printed in example text): 840 nM
Structure (SMILES): O=C(NC[C@H]1CN(c2ccc(S(=O)(=O)N3CCC3)cc2)C(=O)O1)c1ccc(Cl)s1 [Example 39, 5-Chloro-N-({(5S)-3-[4-(1-azetidinylsulphonyl)phenyl]-2-oxo-1,3-oxazolidin-5-yl}methyl)-2-thiophenecarboxannide]

IC50 (human factor Xa (FXa); human FXa, table of Examples 48-57): 120 nM
Structure (SMILES): O=C(NC[C@H]1CN(c2ccc(N3CCN(C(=O)CO)CC3)c(F)c2)C(=O)O1)c1ccc(Cl)s1 [Example 48]
